# Key:
# Malme3M = test: growth rate effect of drugs in sgGAPDHS genome-edited cells versus control; format: cell-based; details: spCas9/sgGAPDHS genome-editing
# From the text: FIGS. 8A-8C. GAPDHS is required for BRAF inhibitor sensitivity in vitro. Lentiviral spCas9/sgGAPDHS genome-editing in Malme3M 8A) reduces protein levels (WB) but not signaling consequences following vemurafenib or PD-0325901. 8B) reduction in the inherent NAD+/NADH ratio is seen, but not treatment affected changes; however the basal NADP+/NADPH ratio is higher and treatment causes divergent changes. 8C) Growth rates are less affected by vemurafenib, PD-0325901, cobimetinib, and PLX7904 due to sgGAPDHS targeting. Significance using 2-sided, 2-sample t-test; *p<0.05; **p<0.01.
# We generated short-guide RNA (sgRNA) for CRISPR/Cas9-mediated genome-editing within the pLentiCRISPRv2 system to assess whether GAPDHS regulates sensitivity to BRAF-targeted drugs through the metabolic state. […] (FIG. 8C). […] We will expand these analyses to also include SKMEL28 and UACC62, and assess dabrafenib and encorafenib. We will also measure basal and changes following BRAF/MEK-inhibitor on the inherent metabolic state, measured as NAD(P)+/NAD(P)H ratios and GAPDH/S activity.
# SKMEL2(NRAS-Q61R) = test: drug-mediated growth inhibition as percentage of baseline doubling rate; format: cell-based; details: NRAS-mutant SKMEL2
# From the text: FIGS. 5A-5B. Response to BRAF/MEK inhibition in melanoma cells was associated with the inherent metabolic state. 5A) Effects on cell doubling rates caused by vemurafenib and PD0325901 treatment in melanoma and carcinoma cell lines. […] 5B) Pearson metric of PD-0325901 growth rate effects used on gene-level transcription data (HuExon 1.0ST) for Gene Set Enrichment Analysis (GSEA) identified specific pathways associated with sensitivity, particularly oxidative phosphorylation, and resistance to BRAF/MEK inhibition.
# Because melanoma cells undergo metabolic shift in response to BRAF- and MEK-targeted therapy, we wanted to characterize the drug sensitivities across a melanoma cell line cohort (FIG. 4A). To ensure that rapidly growing cells versus slow were compared in a normalized manner, we assessed the degree of drug-mediated growth inhibition as percentage of the baseline doubling rate for each cell line (FIG. 5A). This approach was based on classical chemotherapy effect measures [26;27 recently used by others].
SMILES,sensitivity (measured as growth rate effect) of sgGAPDHS cells versus control (Malme3M),"doubling rate under BRAF inhibitor, % of normal doubling rate (SKMEL2(NRAS-Q61R)) [%]"
O=C(c1ccc(F)c(F)c1Nc1ccc(I)cc1F)N1CC(O)([C@@H]2CCCCN2)C1 [cobimetinib],reduced sensitivity,–
O=C(NOC[C@H](O)CO)c1ccc(F)c(F)c1Nc1ccc(I)cc1F [PD-0325901],reduced sensitivity,–
CCN(C)S(=O)(=O)Nc1ccc(F)c(C(=O)c2c[nH]c3ncc(-c4cnc(C5CC5)nc4)cc23)c1F [PLX7904],reduced sensitivity,–
Cc1nc(NC(=O)N2CCC[C@H]2C(N)=O)sc1-c1ccnc(C(C)(C)C(F)(F)F)c1 [BYL719],"did not, however, observe reduced sensitivity",–
CCCS(=O)(=O)Nc1ccc(F)c(C(=O)c2c[nH]c3ncc(-c4ccc(Cl)cc4)cc23)c1F [vemurafenib],–,100
